Reference: ChEMBL document CHEMBL1201862, “PubChem BioAssay data set” (2004)
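Step 1: Grow cells in 96-well plates. Step 2: Expose to compound for 48 hours at 5 concentrations. Step 3: Interpolate endpoints linearly; if unreached, use highest concentration. Here, GI50 denotes the concentration required for 50% inhibition of growth.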 Active and inactive are the calls of the source. Cut-off read from the data, not from the text of the source: active = GI50 up to about 1.1 µM and inactive = higher.

Assays:
Assay in all cases: NCI tumour cell line growth inhibition, 48 h
SK-MEL-28 = test system: SK-MEL-28
KM-20L2 = test system: KM-20L2
HOP-92 = test system: HOP-92
HT-29 = test system: HT-29
DLD-1 = test system: DLD-1
Malme-3M = test system: Malme-3M
EKVX = test system: EKVX
ACHN = test system: ACHN
XF498 = test system: XF498
SNB-78 = test system: SNB-78
SF-268 = test system: SF-268
SK-MEL-2 = test system: SK-MEL-2
M19-MEL = test system: M19-MEL
NCI-H522 = test system: NCI-H522
UACC-62 = test system: UACC-62
MOLT-4 = test system: MOLT-4
K562 = test system: K562
CCRF-CEM = test system: CCRF-CEM
COLO 205 = test system: COLO 205
SR = test system: SR
M14 = test system: M14
UO-31 = test system: UO-31
DMS-114 = test system: DMS-114
LOX IMVI = test system: LOX IMVI
HOP-62 = test system: HOP-62
SF-539 = test system: SF-539
U-251 = test system: U-251
SN12C = test system: SN12C
TK-10 = test system: TK-10
SK-MEL-5 = test system: SK-MEL-5
NCI-H226 = test system: NCI-H226
NCI-H23 = test system: NCI-H23
LXFL 529 = test system: LXFL 529
UACC-257 = test system: UACC-257
DMS-273 = test system: DMS-273
SF-295 = test system: SF-295
IGROV-1 = test system: IGROV-1
OVCAR-3 = test system: OVCAR-3
NCI-H460 = test system: NCI-H460
OVCAR-8 = test system: OVCAR-8
SNB-75 = test system: SNB-75
SNB-19 = test system: SNB-19
SK-OV-3 = test system: SK-OV-3
OVCAR-5 = test system: OVCAR-5
HCC 2998 = test system: HCC 2998
RPMI-8226 = test system: RPMI-8226
HCT-15 = test system: HCT-15
HOP-18 = test system: HOP-18
KM12 = test system: KM12
HL-60 = test system: HL-60
786-0 = test system: 786-0
SW-620 = test system: SW-620

Measured: GI50

COc1cc2c(cc1OC)C(C#N)N(C(=O)c1ccccc1)C=C2OC(=O)c1ccccc1 (configuration not stated)
inactive: SK-MEL-28 22.9 µM | KM-20L2 52.4 µM | HOP-92 27 µM | HT-29 48.5 µM | DLD-1 29.6 µM | Malme-3M 25.3 µM | EKVX 28.7 µM | ACHN 20 µM | XF498 26.5 µM | SNB-78 30 µM | SF-268 30.8 µM | SK-MEL-2 22.6 µM | M19-MEL 33.7 µM | NCI-H522 17.2 µM | UACC-62 20.5 µM | MOLT-4 77.8 µM | K562 32.7 µM | CCRF-CEM 36.6 µM | COLO 205 46.6 µM | SR 61.5 µM | M14 37.8 µM | UO-31 20.4 µM | DMS-114 31 µM | LOX IMVI 39.4 µM | HOP-62 17.6 µM | SF-539 19.1 µM | U-251 24.7 µM | SN12C 38.5 µM | TK-10 27.1 µM | SK-MEL-5 23.9 µM | NCI-H226 23.2 µM | NCI-H23 44.9 µM | LXFL 529 20.6 µM | UACC-257 23.4 µM | DMS-273 21.7 µM | SF-295 22.5 µM | IGROV-1 24.8 µM | OVCAR-3 21.3 µM | NCI-H460 36.4 µM | OVCAR-8 27.9 µM | SNB-75 17 µM | SNB-19 23.6 µM | SK-OV-3 65.8 µM | OVCAR-5 > 100 µM | HCC 2998 45.1 µM | RPMI-8226 39.2 µM | HOP-18 22 µM | KM12 34.4 µM | HL-60 > 100 µM | 786-0 18.1 µM | SW-620 33 µM
32.1 µM: HCT-15
